The values below come from publication PMC8333425, “Discovery of a dual Ras and ARF6 inhibitor from a GPCR endocytosis screen” (Nature Communications, 2021).

Several values for one entry are separate records, joined by “and”; a condition that tells them apart may be missing. Identical values can stand only once.

Test [1] deals with T1, 384 kinases from the human genome (Homo sapiens, UniProt P42336).
T1 construct: purchased Eurofin/DiscoverX
The test is described as follows: KINOMEscan kinase binding assay. To be noted: kinase PIK3CA (Entrez PIK3CA). An excerpt:
(§1) We reasoned that because internalizing AT1R and its targeting to intracellular compartments can support continued MAPK signaling, and since 21 inhibits receptor internalization, it should also impede to some extent ERK1/2 activation. […] Receptor-mediated ERK1/2 signaling can involve upstream kinases such as PKC, BRAF, and MEK1[35],[36]. […] To exclude other kinases potentially involved in ERK1/2 and Akt activation as targets of 21, we ran a kinase binding assay (KINOMEscan™) on 384 kinases from the human genome. Remarkably, a very high selectivity score S(10) of 0.008 was found (Supplementary Data 3).
(§2) The chemical library used for initial screening was from Chembridge DiverSet™ (60,000 compounds), Maybridge HitFinder™ (16,000 compounds), Maybridge (selected, 16,000 compounds), SPECS (selected, 16000 compounds), Microsource Discovery Spectrum (2000 compounds), Biomol (natural products, 500 compounds), Prestwick (commercialized products, 1120 compounds), SIGMA LopacTM (1280 compounds) and internal collection (synthesized at Université de Montréal-IRIC, ~4000 compounds). Compounds were all assigned an Université de Montréal number (UM) for internal use. Screen was performed at IRIC HTS facility. KINOMEscan™ profiling was serviced by Eurofin/DiscoverX (San Diego, USA).
(§3) Description of Additional Supplementary Files […]
(§4) File Name: Supplementary Data 3
(§5) Description: KINOMEscan results. Compound 21’s effect was tested on 384 kinases. Data represent kinases binding to their ligands in presence of 10 µM of 21, as compared to DMSO (100%). Results are from one experiment and represent the average of duplicates. Three kinases (FLT3, KIT, and PDGFRB) out of 384 were more than 90% affected (selectivity score S(10) of 0.008). […]

The target of test [2] is T2, 384 kinases from the human genome (Homo sapiens, UniProt P24723).
T2 construct: purchased Eurofin/DiscoverX
The test is described as follows: KINOMEscan kinase binding assay. To be noted: kinase PRKCH (Entrez PRKCH).
Description: as §1, §2, §3, §4, §5

The target of test [3] is T3, 384 kinases from the human genome (Homo sapiens, UniProt P49761).
T3 construct: purchased Eurofin/DiscoverX
The test is described as follows: KINOMEscan kinase binding assay. To be noted: kinase CLK3 (Entrez CLK3).
Description: as §1, §2, §3, §4, §5

Test [4] addresses T4, 384 kinases from the human genome (Homo sapiens, UniProt Q99759).
T4 construct: purchased Eurofin/DiscoverX
The test is described as follows: KINOMEscan kinase binding assay. To be noted: kinase MAP3K3 (Entrez MAP3K3).
Description: as §1, §2, §3, §4, §5

The target in test [5] is T5, 384 kinases from the human genome (Homo sapiens, UniProt Q9UQM7).
T5 construct: purchased Eurofin/DiscoverX
The test is described as follows: KINOMEscan kinase binding assay. To be noted: kinase CAMK2A (Entrez CAMK2A).
Description: as §1, §2, §3, §4, §5

In test [6] the target is T6, 384 kinases from the human genome (Homo sapiens, UniProt Q8TDC3).
T6 construct: purchased Eurofin/DiscoverX
The test is described as follows: KINOMEscan kinase binding assay. To be noted: kinase BRSK1 (Entrez BRSK1).
Description: as §1, §2, §3, §4, §5

The subject of the next test is Ras. Nature of the test: GST-Raf1-RBD pull-down of EGFR-mediated Ras activation. Type of test: cell-based, human. To be noted: for Ras-GTP over total Ras, GST-Raf1-RBD pull-down, EGFR: Comp 21 50 μM, individual experiments. An excerpt:
Since 21 inhibited both ERK1/2 and Akt activation by GPCRs and EGFR, we looked at a common target involved in both pathways. The small G protein Ras is an upstream regulator of both Ras-RAF-MEK-ERK and PI3K/Akt signaling pathways[35],[36]. Therefore, we explored 21’s ability to inhibit Ras activity using GST-Raf1-Ras-binding domain (RBD) in a pull-down assay. A reduction of 60% in GTP-bound Ras was noticed in pulled-down from cells treated with 21 and stimulated with either AT1R or EGFR, as compared to vehicle-treated cells (Fig. 4a, b). Complementary to this in vitro assay, we generated a Ras BRET assay, using the Raf-Ras binding domain tagged with RlucII (Raf1-RBD-RlucII) and the rGFP at the PM (rGFP-CAAX) (Supplementary Fig. 3c), to assess 21’s effects on Ras activation kinetics. […] Overexpression of either the active form of Ras (G12V) or SOS1 anchored at the PM (SOS-CAAX) produced a robust basal BRET signal that was no longer modulated by receptor activation (Supplementary Fig. 3d). […] 21’s potency to inhibit ARF6 and Ras is also consistent with its relative efficacy for inhibiting AT1R internalization and MAPK, respectively, when used at 50 μM (e.g., around 7 and 70 times the respective IC50s) (Figs. 2e and 3a). We also assessed if 21 was acting as a pan small G protein inhibitor by testing its effect on Rho and Rac/Cdc42. […] To assess Rac/Cdc42 activity, we generated a Rac/Cdc42 BRET sensor that consisted of the PAK-CRIB domain fused to RlucII (PAK-CRIB-RlucII) and the rGFP-CAAX (Supplementary Fig. 3e). PAK-CRIB, which binds to active Rac/Cdc42, was recruited to the PM upon AngII stimulation of cells and generated a robust BRET signal, which was blocked by the overexpression of the DN Rac1-T17N. Overexpression of the constitutively active Rac1-Q61L increased the basal BRET, which was no longer modulated by AT1R stimulation (Supplementary Fig. 3f).
Activation of ARF1, ARF6, Ras, and Rho were assessed by using GST pull-down assays. […] ImageLab 5.2 software was used to quantify the digital blots as fold of the amount of pulled down protein over total protein. […]

T5 sequence (Q9UQM7 whole entry): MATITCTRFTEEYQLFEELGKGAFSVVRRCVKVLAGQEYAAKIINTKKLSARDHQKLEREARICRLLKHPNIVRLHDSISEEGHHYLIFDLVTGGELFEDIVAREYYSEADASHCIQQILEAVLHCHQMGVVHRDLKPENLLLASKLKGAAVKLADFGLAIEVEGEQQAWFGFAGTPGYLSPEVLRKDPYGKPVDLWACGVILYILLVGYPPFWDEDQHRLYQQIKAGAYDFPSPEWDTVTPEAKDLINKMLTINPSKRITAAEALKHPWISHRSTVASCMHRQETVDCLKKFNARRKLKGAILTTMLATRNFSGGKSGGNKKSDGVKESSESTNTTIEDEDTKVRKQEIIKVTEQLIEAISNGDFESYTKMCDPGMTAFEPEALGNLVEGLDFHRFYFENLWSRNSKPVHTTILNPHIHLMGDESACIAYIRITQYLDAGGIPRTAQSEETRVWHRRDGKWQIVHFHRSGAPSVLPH
T6 sequence (Q8TDC3 whole entry): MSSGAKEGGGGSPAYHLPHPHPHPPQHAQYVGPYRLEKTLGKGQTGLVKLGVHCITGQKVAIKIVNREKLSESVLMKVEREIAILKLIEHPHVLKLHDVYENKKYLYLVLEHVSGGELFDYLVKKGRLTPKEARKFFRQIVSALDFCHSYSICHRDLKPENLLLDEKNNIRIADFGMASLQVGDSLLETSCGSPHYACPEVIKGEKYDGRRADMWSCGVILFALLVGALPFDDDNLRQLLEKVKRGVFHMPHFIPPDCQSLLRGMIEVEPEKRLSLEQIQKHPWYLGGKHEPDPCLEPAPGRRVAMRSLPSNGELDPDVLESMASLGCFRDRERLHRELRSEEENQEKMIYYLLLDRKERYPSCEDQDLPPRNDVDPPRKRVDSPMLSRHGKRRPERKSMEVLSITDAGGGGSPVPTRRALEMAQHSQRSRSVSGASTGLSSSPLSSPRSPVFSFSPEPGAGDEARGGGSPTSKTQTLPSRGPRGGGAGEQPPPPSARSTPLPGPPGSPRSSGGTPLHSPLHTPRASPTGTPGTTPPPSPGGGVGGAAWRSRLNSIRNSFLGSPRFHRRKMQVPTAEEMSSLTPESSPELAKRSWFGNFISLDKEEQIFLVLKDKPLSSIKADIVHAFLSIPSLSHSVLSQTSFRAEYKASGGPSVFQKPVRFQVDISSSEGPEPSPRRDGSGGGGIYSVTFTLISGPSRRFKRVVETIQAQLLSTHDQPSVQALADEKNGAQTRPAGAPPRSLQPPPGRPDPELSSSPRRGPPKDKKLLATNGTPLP
T2 sequence (P24723 whole entry): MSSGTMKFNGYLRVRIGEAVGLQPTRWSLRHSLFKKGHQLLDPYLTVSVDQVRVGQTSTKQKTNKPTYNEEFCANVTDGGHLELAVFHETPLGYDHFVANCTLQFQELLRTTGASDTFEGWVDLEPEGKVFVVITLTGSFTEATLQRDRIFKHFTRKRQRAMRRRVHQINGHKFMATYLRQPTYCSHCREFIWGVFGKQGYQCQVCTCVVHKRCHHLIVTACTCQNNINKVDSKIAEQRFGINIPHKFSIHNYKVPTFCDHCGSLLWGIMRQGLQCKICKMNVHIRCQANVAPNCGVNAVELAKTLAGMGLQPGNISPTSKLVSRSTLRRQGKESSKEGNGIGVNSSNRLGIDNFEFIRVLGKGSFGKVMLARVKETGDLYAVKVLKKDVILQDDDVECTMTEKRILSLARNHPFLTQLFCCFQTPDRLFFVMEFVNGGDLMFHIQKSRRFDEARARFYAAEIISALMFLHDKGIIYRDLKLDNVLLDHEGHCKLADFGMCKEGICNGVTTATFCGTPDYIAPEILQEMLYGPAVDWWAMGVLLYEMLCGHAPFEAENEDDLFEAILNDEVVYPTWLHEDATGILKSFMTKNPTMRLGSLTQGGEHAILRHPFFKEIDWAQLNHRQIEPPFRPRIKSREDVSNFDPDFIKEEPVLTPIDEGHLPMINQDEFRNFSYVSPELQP
T4 sequence (Q99759 whole entry): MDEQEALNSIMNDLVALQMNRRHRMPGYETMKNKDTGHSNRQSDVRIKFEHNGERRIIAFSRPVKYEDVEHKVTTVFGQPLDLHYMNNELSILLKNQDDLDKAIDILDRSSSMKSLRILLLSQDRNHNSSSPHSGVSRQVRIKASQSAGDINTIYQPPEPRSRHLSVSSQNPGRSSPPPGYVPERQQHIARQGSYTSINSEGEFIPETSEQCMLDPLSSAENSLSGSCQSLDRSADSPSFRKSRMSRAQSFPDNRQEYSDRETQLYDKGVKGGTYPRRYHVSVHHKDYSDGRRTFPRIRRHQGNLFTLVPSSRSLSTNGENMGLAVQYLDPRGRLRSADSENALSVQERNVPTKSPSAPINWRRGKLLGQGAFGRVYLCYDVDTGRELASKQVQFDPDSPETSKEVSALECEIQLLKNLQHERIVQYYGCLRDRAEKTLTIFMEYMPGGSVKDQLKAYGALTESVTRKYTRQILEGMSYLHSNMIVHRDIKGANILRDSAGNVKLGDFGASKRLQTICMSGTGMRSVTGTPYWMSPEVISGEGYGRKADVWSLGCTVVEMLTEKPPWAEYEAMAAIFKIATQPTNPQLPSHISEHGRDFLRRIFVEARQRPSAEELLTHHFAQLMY
T3 sequence (P49761 whole entry): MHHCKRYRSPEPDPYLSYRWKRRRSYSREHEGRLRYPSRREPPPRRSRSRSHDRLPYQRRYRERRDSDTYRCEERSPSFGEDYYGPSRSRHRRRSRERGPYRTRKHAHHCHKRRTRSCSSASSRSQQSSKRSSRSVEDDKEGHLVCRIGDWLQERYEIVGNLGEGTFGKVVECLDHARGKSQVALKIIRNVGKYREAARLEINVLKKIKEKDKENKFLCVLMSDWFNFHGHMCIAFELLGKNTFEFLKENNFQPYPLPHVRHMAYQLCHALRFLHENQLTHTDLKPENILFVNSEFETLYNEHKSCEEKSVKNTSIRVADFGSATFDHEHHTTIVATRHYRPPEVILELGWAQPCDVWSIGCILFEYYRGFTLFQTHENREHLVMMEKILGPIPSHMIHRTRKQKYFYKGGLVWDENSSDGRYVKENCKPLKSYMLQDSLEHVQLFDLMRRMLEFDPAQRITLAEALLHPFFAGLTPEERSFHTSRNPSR
T1 sequence (P42336 whole entry): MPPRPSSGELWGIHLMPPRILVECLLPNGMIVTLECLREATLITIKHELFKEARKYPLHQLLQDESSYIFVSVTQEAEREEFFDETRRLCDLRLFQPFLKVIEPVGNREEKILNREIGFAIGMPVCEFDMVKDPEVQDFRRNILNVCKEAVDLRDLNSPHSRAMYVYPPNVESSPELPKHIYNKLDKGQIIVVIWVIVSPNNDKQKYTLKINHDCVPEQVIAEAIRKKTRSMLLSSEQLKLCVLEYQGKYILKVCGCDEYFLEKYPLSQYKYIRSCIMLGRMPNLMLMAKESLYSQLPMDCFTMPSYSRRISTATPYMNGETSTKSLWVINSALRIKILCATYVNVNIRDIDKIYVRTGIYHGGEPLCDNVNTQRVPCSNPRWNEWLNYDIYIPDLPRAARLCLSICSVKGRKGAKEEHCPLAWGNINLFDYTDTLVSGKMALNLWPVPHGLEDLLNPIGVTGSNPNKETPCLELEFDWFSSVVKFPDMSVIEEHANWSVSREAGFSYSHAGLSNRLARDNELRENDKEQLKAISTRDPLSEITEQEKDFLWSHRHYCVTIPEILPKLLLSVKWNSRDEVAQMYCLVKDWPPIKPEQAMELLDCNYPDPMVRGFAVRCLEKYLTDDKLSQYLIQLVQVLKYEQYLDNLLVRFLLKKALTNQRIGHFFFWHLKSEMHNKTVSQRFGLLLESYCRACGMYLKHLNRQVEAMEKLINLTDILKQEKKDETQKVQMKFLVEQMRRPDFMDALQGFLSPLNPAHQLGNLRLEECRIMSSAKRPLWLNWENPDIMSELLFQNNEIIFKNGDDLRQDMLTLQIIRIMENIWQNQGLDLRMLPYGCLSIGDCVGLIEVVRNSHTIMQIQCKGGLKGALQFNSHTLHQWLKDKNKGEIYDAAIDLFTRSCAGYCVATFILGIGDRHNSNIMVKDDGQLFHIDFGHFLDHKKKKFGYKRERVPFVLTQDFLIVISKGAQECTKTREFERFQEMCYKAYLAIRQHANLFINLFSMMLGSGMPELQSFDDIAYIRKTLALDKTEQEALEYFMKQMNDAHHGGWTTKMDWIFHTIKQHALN

On to `CC(C)C(=O)N1CCN(c2ccc(NC(=O)c3cc4ccccc4o3)cc2Cl)CC1` [Compound 21], for which the “Percent Control” value in test [1] is given as 100%; in test [2] it was 92%; in test [3] it was 100%; in test [4], 75%; in test [5], 100%; in test [6], 99%. Moreover, in the test on Ras (50 μM, compared to vehicle-treated cells), the “reduction in GTP-bound Ras, EGFR-stimulated cells (pull-down)” value amounted to 60%. Moreover, the “Ras-GTP over total Ras, GST-Raf1-RBD pull-down, EGFR” value in the test with Ras (Ctrl (no EGF)) was 0.1945 and 0.09698 and 0.1503; with Ras (EGF), 1.319 and 0.978 and 0.8185.
